In patent US20100120788A1, “IDENTIFICATION OF POLYNUCLEOTIDES FOR […] OF COMPOUNDS THAT […] WITH AND/OR MODULATE PROTEIN TYROSINE KINASES AND/OR PROTEIN TYROSINE KINASE […] IN PROSTATE CELLS” (Bristol-Myers Squibb Company, priority 2007, published 2010):

How the values were obtained:
[1] = test system: secreted uPA protein in PC3 cells; test: uPA protein ELISA assay of culture medium; format: cell-based, human; settings: different doses, 24 h, per 50,000 viable cells
Description: FIG. 3. PLAU gene expression and regulation by dasatinib analyzed at mRNA and protein levels. (A) Differential baseline expression of PLAU gene between resistant (R, in black) and sensitive (S, in red) cell lines. The X-values are the expression level in log2-scale. The resistant cell line expressing high level of PLAU was WPMY1 and the sensitive cell line expressing low level of PLAU was LNCaP. (B) Down-regulation of PLAU mRNA level by dasatinib-treatment in 5 sensitive cell lines. The cells were treated with 100 nM dasatinib (+D) or DMSO (Ctrl) for 48 hours. The p value was 0.048 in paired t-test, indicating a significant reduction of PLAU mRNA following dasatinib treatment. (C) Correlation between dasatinib-induced PLAU mRNA down-regulation with the sensitivity of cell lines to dasatinib. […] The amount of uPA protein secreted into the culture medium by 50,000 viable cells was assessed by ELISA assay. […]
Cell were seeded in 24-well plates at density of 25,000 cells/well. […] Total number of cells were also quantitated using a cell counter, and the number of viable cells were assessed with Trypan Blue. The amount of uPA protein in the supernatant was determined using the uPA ELISA kit (America Diagnostica, Stamford, Conn.), and the concentrations of uPA secreted by 50,000 viable cells into the medium were calculated.

PC3 xenograft tumors = test: PC3 xenograft tumor growth; format: in vivo, nu/nu athymic mice; settings: 15 or 30 mg/kg orally twice a day, 5-day-on 2-day-off, 20 doses
Protocol: FIG. 5. […] Xenograft tumors were established subcutaneously in nu/nu athymic mice. The mice were divided into three groups each with 8 mice after tumors had reached approximately 200 mg. […] Dasatinib was administered orally twice a day on a 5-day-on 2-day-off schedule for 20 doses. The tumor size measurement and blood sampling were performed prior to treatment and weekly for two weeks after treatment initiation. […] Experiments were performed as described in Example 2.
The mice were divided into three groups each with 8 mice after tumors had reached approximately 200 mg. […] Dasatinib was administered orally twice a day on a 5-day-on 2-day-off schedule for 20 doses. The tumor size measurement and blood sampling were performed prior to treatment and weekly for two weeks after treatment initiation. Tumor weight was determined using the following equation: tumor weight=(length*width^2)/2.

PLAU mRNA = test: Down-regulation of PLAU mRNA expression by dasatinib; format: cell-based, human; settings: for reduction of PLAU mRNA expression: 100 nM, 48 hours vs DMSO
Description: FIG. 3. PLAU gene expression and regulation by dasatinib analyzed at mRNA and protein levels. (A) Differential baseline expression of PLAU gene between resistant (R, in black) and sensitive (S, in red) cell lines. The X-values are the expression level in log2-scale. The resistant cell line expressing high level of PLAU was WPMY1 and the sensitive cell line expressing low level of PLAU was LNCaP. (B) Down-regulation of PLAU mRNA level by dasatinib-treatment in 5 sensitive cell lines. The cells were treated with 100 nM dasatinib (+D) or DMSO (Ctrl) for 48 hours. The p value was 0.048 in paired t-test, indicating a significant reduction of PLAU mRNA following dasatinib treatment. (C) Correlation between dasatinib-induced PLAU mRNA down-regulation with the sensitivity of cell lines to dasatinib. In addition to those 5 sensitive cells, three dasatinib-resistant cell lines 22Rv, MDAPCa2b, and VCaP were also treated with dasatinib same as in FIG. 3B. The extent of PLAU down-regulation by dasatinib (Y-axis) was negatively correlated with the log2IC50 values (X-axis) of these 8 cell lines. (D) Dose-dependent down-regulation of PLAU mRNA expression in PC3 cells. Cells were treated with or without different concentrations of dasatinib for 4 or 24 hours. The PLAU expression level relative to control was shown in Y-axis. (E) Dose-dependent inhibition of secreted uPA protein in PC3 cells by dasatinib but not by TAXOL®. Cells were treated with different doses of dasatinib, TAXOL® or DMSO for 24 hours. The amount of uPA protein secreted into the culture medium by 50,000 viable cells was assessed by ELISA assay.
The down-regulation of PLAU mRNA expression by dasatinib was observed (FIG. 3B).
(§1) AFFYMETRIX® HG-U133v2 gene chips containing ˜22,000 probe sets were used for gene expression profiling (Affymetrix, Santa Clara, Calif.). Total RNA was isolated from the cells using the RNeasy kits (Qiagen, Valencia, Calif.). The quality of the RNA was assessed using an Agilent 2100 Bioanalyzer (Agilent, Santa Clara, Calif.). Ten μg of total RNA was used for the preparation of biotin-labeled cRNA. Chip hybridization, scanning and data acquisition were performed according to the Expression Analysis Technical Manual provided by the manufacturer.
(§2) The raw expression data were normalized using an RMA algorithm and analyzed in PARTEK® Discovery Suite software (Partek, St Louis, Mo.). Two statistical analyses including 1-way ANOVA for comparison of gene expression between sensitive and resistant cell line groups, and Pearson correlation between gene expression level and log2IC50 values were performed to identify genes whose baseline expression levels correlated with the sensitivity to dasatinib in 16 prostate cell lines (p value<0.05 in both analyses). […] ESTs and gene duplicates were eliminated from the final list. Gene expression profiles of drug treated (100 nM for 2 days) cell lines were compared with those of DMSO control using paired t-test (p value<0.05). Clustering analysis was performed using GeneCluster software and heatmaps were generated with red and green indicating high or low expression respectively.

[2] = test system: PWR1E, RWPE2, PC3, DU145 and LNCaP cells; test: Microarray gene expression profiling of drug-treated vs mock-treated cell lines (genes modulated by BMS-A); format: cell-based, human
Protocol: as §1, §2

[3] = 100 nM for 2 days vs DMSO control, paired t-test p<0.05, 5 sensitive cell lines

Cc1nc(Nc2ncc(C(=O)Nc3c(C)cccc3Cl)s2)cc(N2CCN(CCO)CC2)n1 [BMS-A, N-(2-chloro-6-methylphenyl)-2-[[6-[4-(2-hydroxyethyl)-1-piperazinyl]-2-methyl-4-pyrimidinyl]amino]-5-thiazolecarboxamide]
relatively mild reduction: reduction of PLAU mRNA expression (PLAU mRNA; PWR1E cells (CK5-expressing)) | reduction of PLAU mRNA expression (PLAU mRNA; RWPE2 cells (CK5-expressing))
Decreased: Modulated by BMS-A: ANXA3 (annexin A3) expression [2, 3] | Modulated by BMS-A: ARNTL2 expression [2, 3] | Modulated by BMS-A: AXL expression [2, 3] | Modulated by BMS-A: CST6 (cystatin E/M) expression [2, 3] | Modulated by BMS-A: EREG (epiregulin) expression [2, 3] | Modulated by BMS-A: FHL2 expression [2, 3] | Modulated by BMS-A: LAMC2 (laminin, gamma 2) expression [2, 3] | Modulated by BMS-A: PLAU (plasminogen activator, urokinase) expression [2, 3] | Modulated by BMS-A: SCEL (sciellin) expression [2, 3] | Modulated by BMS-A: ZBED2 expression [2, 3]
showed a reduction: reduction of PLAU mRNA expression (PLAU mRNA; LNCaP cells)
decreased: Modulated by BMS-A (p < 0.05): AXL expression ([2]; gene AXL receptor tyrosine kinase (AXL), probe 202686_s_at, Gene No. 52, expressed in sensitive cell lines) | Modulated by BMS-A (p < 0.05): ANXA3 expression ([2]; gene annexin A3 (ANXA3), probe 209369_at, Gene No. 8, expressed in sensitive cell lines) | Modulated by BMS-A (p < 0.05): ARNTL2 expression ([2]; gene aryl hydrocarbon receptor nuclear translocator-like 2 (ARNTL2), probe 220658_s_at, Gene No. 100, expressed in sensitive cell lines) | Modulated by BMS-A (p < 0.05): CST6 expression ([2]; gene cystatin E/M (CST6), probe 206595_at, Gene No. 15, expressed in sensitive cell lines) | Modulated by BMS-A (p < 0.05): EREG expression ([2]; gene epiregulin (EREG), probe 205767_at, Gene No. 43, expressed in sensitive cell lines) | Modulated by BMS-A (p < 0.05): FHL2 expression ([2]; gene four and a half LIM domains 2 (FHL2), probe 202949_s_at, Gene No. 54, expressed in sensitive cell lines) | Modulated by BMS-A (p < 0.05): LAMC2 expression ([2]; gene laminin, gamma 2 (LAMC2), probe 202267_at, Gene No. 33, expressed in sensitive cell lines) | Modulated by BMS-A (p < 0.05): PLAU (uPA) expression ([2]; gene plasminogen activator, urokinase (PLAU, also referred to as uPA), probe 205479_s_at, Gene No. 63, expressed in sensitive cell lines) | Modulated by BMS-A (p < 0.05): SCEL expression ([2]; gene sciellin (SCEL), probe 206884_s_at, Gene No. 3, expressed in sensitive cell lines)
reduced: amount of uPA protein secreted into the growth medium [1]
inhibited: PC3 xenograft tumor growth (PC3 xenograft tumors)
dramatic: reduction of PLAU mRNA level, multiple-dose treatment study (PLAU mRNA; PC3 cells, 24 h, dose-dependent)
approximately 50%: reduction of PLAU mRNA expression (PLAU mRNA; DU145 cells) | reduction of PLAU mRNA expression (PLAU mRNA; PC3 cells)
minimal: reduction of PLAU mRNA level, multiple-dose treatment study (PLAU mRNA; PC3 cells, 4 h, all doses vs untreated control)
